Experimental findings from patent publication US11420970B1 (NOVARTIS AG, priority 2019, dated 2022) are described below.

Where two headings read alike, the source gives them in different places.

The target of one assay is NSD2 [1-1365] (Homo sapiens (Human), UniProt O96028). Briefly: LC-MS/MS-based NSD2 enzymatic assay (SAH production). The class given is biochemical. The settings on record: read-out: NSD2 IC50. An outline of the steps: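 Full-length NSD2 [1-1365] (8 nM final) with 1 μM SAM and 400 nM mouse-liver nucleosome in Tris pH 8.0 buffer; inhibitor preincubated 20 min with enzyme/SAM before nucleosome addition. Reaction 90 min at room temperature, TFA-quenched; SAH quantified by LC-MS/MS against d4-SAH internal standard and SAH standard curve.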

The test system of assay [1] is cellular H3K36me2 level in thyroid carcinoma cell line CGTH-W-1 (NSD2 E1099K). Briefly: H3K36me2 cellular ELISA assay in CGTH-W-1 line. The class given is cell-based. The settings on record: Homo sapiens, CGTH-W-1, 72 h, read-out: H3K36me2 ELISA in CGTH-W-1. As to the method:
H3K36Me2 Cellular ELISA Assay in CGTH-W-1 Line
An ELISA (enzyme-linked immunosorbent assay) based assay was used to test the ability of candidate compound to reduce cellular H3K36me2 level in thyroid carcinoma cell line CGTH-W-1, carrying NSD2 E1099K gain of function mutation. CGTH-W-1 (DSMZ) cells are maintained in RPM11640 media with 10% FBS and 50 U/ml Penicillin-Streptomycin.
Cells were treated with tested compounds at the desired concentration for 72 hours.
Histone bound plates were washed and blocked with 5% BSA. […] The abundance of H3K36me2 and total H3 was measured by Chemiluminesce on a plate reader. Cell viability was monitored on a parallel seeded plate with CellTiter-Glo reagent (Promega #G7573).
For orientation: In an ELISA, binding on a coated surface is turned into a signal by an enzyme label.

Assay [2] relates to cellular H3K36me2 level in multiple myeloma cell line KMS11 (t(4;14)+). Briefly: H3K36me2 cellular ELISA assay in KMS11-Par line. Format: cell-based. As to conditions: Homo sapiens, KMS-11, ELISA, read-out: H3K36me2 ELISA in KMS11-Par. An outline of the steps:
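KMS11 cells were seeded a day ahead at 1,250 per well in Opti-MEM with B-27/N2, then treated with compound for 72 h. Histones were acid-extracted with 0.4M HCl, and H3K36me2 and total H3 were read by chemiluminescent ELISA. Viability was checked with CellTiter-Glo on a parallel plate in maintenance media.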

Setting [3] is: NSD2 biochemical activity, class symbols.
The mark [4] stands for this setting: KMS11-Par line (t(4;14)+), 72 hours treatment.

Sequence of NSD2 [1-1365] (O96028 whole entry): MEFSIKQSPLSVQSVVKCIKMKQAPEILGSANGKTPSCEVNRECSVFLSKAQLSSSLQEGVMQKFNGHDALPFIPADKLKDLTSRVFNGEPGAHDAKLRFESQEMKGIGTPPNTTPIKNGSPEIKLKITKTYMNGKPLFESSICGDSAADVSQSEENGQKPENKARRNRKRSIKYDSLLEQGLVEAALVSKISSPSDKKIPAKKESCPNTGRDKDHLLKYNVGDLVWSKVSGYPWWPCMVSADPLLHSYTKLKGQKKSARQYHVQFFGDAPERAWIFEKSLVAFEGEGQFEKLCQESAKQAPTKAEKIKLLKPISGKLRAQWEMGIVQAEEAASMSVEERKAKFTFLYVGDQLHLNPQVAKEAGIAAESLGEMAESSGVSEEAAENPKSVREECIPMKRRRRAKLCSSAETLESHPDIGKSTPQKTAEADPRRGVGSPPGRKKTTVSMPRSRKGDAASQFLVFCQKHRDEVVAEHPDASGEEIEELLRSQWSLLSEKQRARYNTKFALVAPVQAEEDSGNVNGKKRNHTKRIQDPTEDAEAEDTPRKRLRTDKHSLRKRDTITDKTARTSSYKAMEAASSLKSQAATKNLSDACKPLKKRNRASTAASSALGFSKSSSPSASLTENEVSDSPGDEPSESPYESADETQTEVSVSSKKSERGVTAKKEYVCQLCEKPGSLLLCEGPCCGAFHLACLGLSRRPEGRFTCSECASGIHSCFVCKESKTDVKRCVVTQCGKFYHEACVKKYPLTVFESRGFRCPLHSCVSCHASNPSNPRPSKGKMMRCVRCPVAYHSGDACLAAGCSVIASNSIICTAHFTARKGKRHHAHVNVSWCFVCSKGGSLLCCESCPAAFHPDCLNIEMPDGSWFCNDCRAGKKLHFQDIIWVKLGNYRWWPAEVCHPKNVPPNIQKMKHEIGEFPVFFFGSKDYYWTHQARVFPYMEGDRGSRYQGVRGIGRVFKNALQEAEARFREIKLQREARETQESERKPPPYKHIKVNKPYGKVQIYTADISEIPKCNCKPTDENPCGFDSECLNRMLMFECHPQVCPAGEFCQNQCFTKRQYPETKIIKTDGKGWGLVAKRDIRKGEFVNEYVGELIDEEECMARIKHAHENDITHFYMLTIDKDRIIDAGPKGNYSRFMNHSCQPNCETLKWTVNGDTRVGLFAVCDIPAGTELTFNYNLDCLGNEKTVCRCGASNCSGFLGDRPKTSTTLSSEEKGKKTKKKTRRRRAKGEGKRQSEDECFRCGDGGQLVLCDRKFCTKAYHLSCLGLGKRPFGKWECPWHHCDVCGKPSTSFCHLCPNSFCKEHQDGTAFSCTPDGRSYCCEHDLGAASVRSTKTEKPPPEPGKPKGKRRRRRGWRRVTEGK

In the case of `COc1ccc(-c2cc(Cn3cnc4c(N)ncnc43)c(N3CCC[C@](N)(C(O)C(F)F)C3)cn2)c(C(F)(F)F)c1` (stereo in doubt) [Example 167, (R)-1-((R)-3-amino-1-(4-((6-amino-9H-purin-9-yl)methyl)-6-(4-methoxy-2-(trifluoromethyl)phenyl)pyridin-3-yl)piperidin-3-yl)-2,2-difluoroethan-1-ol], the IC50 is 10 to 1000 nM on NSD2 [1-1365]; 559 nM in assay [1]; 6120 nM in assay [2] (KMS11-Par line, 72 hours).

As to `Nc1ncnc2c1ncn2Cc1cc(-c2ccc(F)c(F)c2)ncc1N1CC[C@@H](O)[C@@H](N)C1` [Example 3, (3S,4R)-3-amino-1-(4-((6-amino-9H-purin-9-yl)methyl)-6-(3,4-difluorophenyl)pyridin-3-yl)piperidin-4-ol], the IC50 at NSD2 [1-1365] (setting [3]) is 10 to 1000 nM; in assay [1], 8250 nM; in assay [2] (setting [4]) it was 33300 nM.

On to `Cn1ccc(C[C@@]2(N)CCCN(c3cnc(-c4ccc(F)c(F)c4)cc3Cn3cnc4c(N)ncnc43)C2)n1` [Example 56, (S)-9-((5-(3-amino-3-((1-methyl-1H-pyrazol-3-yl)methyl)piperidin-1-yl)-2-(3,4-difluorophenyl)pyridin-4-yl)methyl)-9H-purin-6-amine], for which the results for the IC50 (on NSD2 [1-1365] (setting [3]); in assay [1]; in assay [2] (setting [4])) were 1 to 10 nM, 273 nM and 234 nM, respectively.

Take `CNC(=O)[C@@]1(N)CCCN(c2cnc(-c3cccc(F)c3)cc2Cn2cnc3c(N)ncnc32)C1` [Example 78, (R)-3-amino-1-(4-((6-amino-9H-purin-9-yl)methyl)-6-(3-fluorophenyl)pyridin-3-yl)-N-methylpiperidine-3-carboxamide]: the results for the IC50 (at NSD2 [1-1365] (setting [3]); in assay [1]; in assay [2] (setting [4])) were 1 to 10 nM, 12 nM and 78 nM, respectively.

With `Nc1ncnc2c1ncn2Cc1cc(-c2ccc(F)c(F)c2)ncc1N1CCCC(N)(C(=O)NC2CCOC2)C1` (stereo not drawn) [Example 85, 3-amino-1-(4-((6-amino-9H-purin-9-yl)methyl)-6-(3,4-difluorophenyl)pyridin-3-yl)-N-(tetrahydrofuran-3-yl)piperidine-3-carboxamide], the figures for the IC50 (at NSD2 [1-1365] (setting [3]); in assay [1]; in assay [2] (setting [4])) were 10 to 1000 nM, 2080 nM and 6490 nM, respectively.

As to `Nc1ncnc2c1ncn2Cc1cc(-c2ccc(F)c(F)c2)ncc1N1CCCC(N)(C(=O)N2CCCCC2)C1` (stereo not drawn) [Example 86, (3-amino-1-(4-((6-amino-9H-purin-9-yl)methyl)-6-(3,4-difluorophenyl)pyridin-3-yl)piperidin-3-yl)(piperidin-1-yl)methanone], the IC50 was 10 to 1000 nM at NSD2 [1-1365] (setting [3]), 8690 nM in assay [1] and 33300 nM in assay [2] (setting [4]).

For `CC1CCCCN1C(=O)C1(N)CCCN(c2cnc(-c3ccc(F)c(F)c3)cc2Cn2cnc3c(N)ncnc32)C1` (stereo not drawn) [Example 87, (3-amino-1-(4-((6-amino-9H-purin-9-yl)methyl)-6-(3,4-difluorophenyl)pyridin-3-yl)piperidin-3-yl)(2-methylpiperidin-1-yl)methanone], the figures for the IC50 (at NSD2 [1-1365] (setting [3]); in assay [1]; in assay [2] (setting [4])) were 10 to 1000 nM, 1600 nM and 6420 nM, respectively.

As to `CC(C)C(C)C(=O)C1(N)CCCN(c2cnc(-c3ccc(F)c(F)c3)cc2Cn2cnc3c(N)ncnc32)C1` (stereo not drawn) [Example 89, 1-(3-amino-1-(4-((6-amino-9H-purin-9-yl)methyl)-6-(3,4-difluorophenyl)pyridin-3-yl)piperidin-3-yl)-2,3-dimethylbutan-1-one], the IC50 on NSD2 [1-1365] (setting [3]) is 10 to 1000 nM; in assay [1], 245 nM; in assay [2] (setting [4]), 684 nM.

As to `COc1ccc(-c2cc(Cn3cnc4c(N)ncnc43)c(N3CCC[C@](N)([C@@H](C)O)C3)cn2)cc1F` [Example 90, (R)-1-((R)-3-amino-1-(4-((6-amino-9H-purin-9-yl)methyl)-6-(3-fluoro-4-methoxyphenyl)pyridin-3-yl)piperidin-3-yl)ethan-1-ol], the IC50 on NSD2 [1-1365] (setting [3]) is 1 to 10 nM; in assay [1] it was 239 nM; in assay [2] (setting [4]), 432 nM.

With `Nc1ncnc2c1ncn2Cc1cc(-c2ccc(F)c(F)c2)ncc1N1CCC[C@](N)([C@H](F)c2ccccn2)C1` [Example 91, 9-((5-((R)-3-amino-3-((S)-fluoro(pyridin-2-yl)methyl)piperidin-1-yl)-2-(3,4-difluorophenyl)pyridin-4-yl)methyl)-9H-purin-6-amine], the values for the IC50 (at NSD2 [1-1365] (setting [3]); in assay [1]; in assay [2] (setting [4])) were 1 to 10 nM, 121 nM and 890 nM, respectively.

Consider `COc1ccc(-c2cc(Cn3cnc4c(N)ncnc43)c(N3CCC[C@](N)([C@H](C)O)C3)cn2)cc1F` [Example 92, (S)-1-((R)-3-amino-1-(4-((6-amino-9H-purin-9-yl)methyl)-6-(3-fluoro-4-methoxyphenyl)pyridin-3-yl)piperidin-3-yl)ethan-1-ol], for which the IC50 on NSD2 [1-1365] (setting [3]) was 1 to 10 nM; in assay [1] it was 2110 nM; in assay [2] (setting [4]), 4890 nM.

In the case of `CC(C)[C@H](O)[C@@]1(N)CCCN(c2cnc(-c3ccc(F)c(F)c3)cc2Cn2cnc3c(N)ncnc32)C1` [Example 98, (S)-1-((R)-3-amino-1-(4-((6-amino-9H-purin-9-yl)methyl)-6-(3,4-difluorophenyl)pyridin-3-yl)piperidin-3-yl)-2-methylpropan-1-ol], the figures for the IC50 (at NSD2 [1-1365] (setting [3]); in assay [1]; in assay [2] (setting [4])) were 10 to 1000 nM, 1500 nM and 6260 nM, respectively.

`CC[C@H](C)C(=O)[C@@]1(N)CCCN(c2cnc(-c3ccc(F)c(F)c3)cc2Cn2cnc3c(N)ncnc32)C1` [Example 101, (S)-1-((R)-3-amino-1-(4-((6-amino-9H-purin-9-yl)methyl)-6-(3,4-difluorophenyl)pyridin-3-yl)piperidin-3-yl)-2-methylbutan-1-one]: the IC50 is 1 to 10 nM on NSD2 [1-1365] (setting [3]), 40 nM in assay [1] and 34 nM in assay [2] (setting [4]).

Consider `CC[C@@H](C)C(=O)[C@@]1(N)CCCN(c2cnc(-c3ccc(F)c(F)c3)cc2Cn2cnc3c(N)ncnc32)C1` [Example 102, (R)-1-((R)-3-amino-1-(4-((6-amino-9H-purin-9-yl)methyl)-6-(3,4-difluorophenyl)pyridin-3-yl)piperidin-3-yl)-2-methylbutan-1-one], for which the IC50 was 10 to 1000 nM at NSD2 [1-1365] (setting [3]), 60 nM in assay [1] and 252 nM in assay [2] (setting [4]).

`CC(C(=O)C1(N)CCCN(c2cnc(-c3ccc(F)c(F)c3)cc2Cn2cnc3c(N)ncnc32)C1)C1CC1` (stereo not drawn) [Example 103, 1-(3-amino-1-(4-((6-amino-9H-purin-9-yl)methyl)-6-(3,4-difluorophenyl)pyridin-3-yl)piperidin-3-yl)-2-cyclopropylpropan-1-one]: the IC50 is 10 to 1000 nM on NSD2 [1-1365] (setting [3]), 138 nM in assay [1] and 379 nM in assay [2] (setting [4]).

In the case of `CC(C)C(=O)[C@@]1(N)CCCN(c2cnc(-c3ccc(F)c(F)c3)cc2Cn2cnc3c(N)ncnc32)C1` [Example 104, (R)-1-(3-amino-1-(4-((6-amino-9H-purin-9-yl)methyl)-6-(3,4-difluorophenyl)pyridin-3-yl)piperidin-3-yl)-2-methylpropan-1-one], the values for the IC50 (on NSD2 [1-1365] (setting [3]); in assay [1]; in assay [2] (setting [4])) were 10 to 1000 nM, 26 nM and 60 nM, respectively.

For `Nc1ncnc2c1ncn2Cc1cc(-c2ccc(F)c(F)c2)ncc1N1CCCC(N)(C(=O)C2CCC2)C1` (stereo not drawn) [Example 105, (3-amino-1-(4-((6-amino-9H-purin-9-yl)methyl)-6-(3,4-difluorophenyl)pyridin-3-yl)piperidin-3-yl)(cyclobutyl)methanone], the IC50 at NSD2 [1-1365] (setting [3]) is 10 to 1000 nM; in assay [1] it was 67 nM; in assay [2] (setting [4]), 140 nM.

As for `COC1CCC(C(=O)C2(N)CCCN(c3cnc(-c4ccc(F)c(F)c4)cc3Cn3cnc4c(N)ncnc43)C2)C1` (stereo not drawn) [Example 106, (3-amino-1-(4-((6-amino-9H-purin-9-yl)methyl)-6-(3,4-difluorophenyl)pyridin-3-yl)piperidin-3-yl)(3-methoxycyclopentyl)methanone], the IC50 is 10 to 1000 nM on NSD2 [1-1365] (setting [3]), 501 nM in assay [1] and 1430 nM in assay [2] (setting [4]).

Take `CC1(C(=O)C2(N)CCCN(c3cnc(-c4ccc(F)c(F)c4)cc3Cn3cnc4c(N)ncnc43)C2)CC1` (stereo not drawn) [Example 107, (3-amino-1-(4-((6-amino-9H-purin-9-yl)methyl)-6-(3,4-difluorophenyl)pyridin-3-yl)piperidin-3-yl)(1-methylcyclopropyl)methanone]: the IC50 on NSD2 [1-1365] (setting [3]) is 10 to 1000 nM; in assay [1], 446 nM; in assay [2] (setting [4]) it was 3020 nM.

Regarding `Nc1ncnc2c1ncn2Cc1cc(-c2ccc(F)c(F)c2)ncc1N1CCCC(N)(C(=O)C2CCOCC2)C1` (stereo not drawn) [Example 108, (3-amino-1-(4-((6-amino-9H-purin-9-yl)methyl)-6-(3,4-difluorophenyl)pyridin-3-yl)piperidin-3-yl)(tetrahydro-2H-pyran-4-yl)methanone], the figures for the IC50 (on NSD2 [1-1365] (setting [3]); in assay [1]; in assay [2] (setting [4])) were 10 to 1000 nM, 772 nM and 1960 nM, respectively.
